Species: Rattus norvegicus
Experiment: DrugMatrix - Regimen: Daily Repeat
Type: toxicity, organism-based, Sprague-Dawley
Design: regimen Daily Repeat, gender Male, age 6-8 weeks
Settings: in vivo, po, route oral GAVAGE, […]; for URIC ACID / ALANINE AMINOTRANSFERASE / ALBUMIN / ALKALINE PHOSPHATASE / ASPARTATE AMINOTRANSFERASE / BLOOD UREA NITROGEN / CARBON DIOXIDE / CHLORIDE / CHOLESTEROL / CREATINE PHOSPHOKINASE / CREATININE / GLUCOSE / LACTATE DEHYDROGENASE / LIPASE / PHOSPHORUS / POTASSIUM / SODIUM / TOTAL BILIRUBIN / TOTAL PROTEIN: tissue Plasma
[1] = 1 mg/kg, 120 h, tissue Blood, dose level Low, time 5 day
[2] = 1 mg/kg, 120 h, dose level Low, time 5 day
[3] = 2.75 mg/kg, 72 h, tissue Blood, dose level High, time 3 day
[4] = 2.75 mg/kg, 72 h, dose level High, time 3 day
[5] = 2.75 mg/kg, 120 h, tissue Blood, dose level High, time 5 day
[6] = 2.75 mg/kg, 120 h, dose level High, time 5 day

In the case of `C[C@H]1O[C@@H](O[C@H]2[C@@H](O)C[C@H](O[C@H]3[C@@H](O)C[C@H](O[C@H]4CC[C@@]5(C)[C@H](CC[C@@H]6[C@@H]5CC[C@]5(C)[C@@H](C7=CC(=O)OC7)CC[C@]65O)C4)O[C@@H]3C)O[C@@H]2C)C[C@H](O)[C@@H]1O` [DIGITOXIN], the “URIC ACID” value (1 mg/kg, 72 h, dose level Low, time 3 day) is reported as 0.53 mg/dL, the “ABSOLUTE BASOPHIL” value [1] is reported as 0 CELLS/uL and the “ABSOLUTE EOSINOPHIL” value [1] is reported as 0 CELLS/uL. The “ABSOLUTE LYMPHOCYTE” value [1] was 9184 CELLS/uL, the “ABSOLUTE MONOCYTE” value [1] was 19 CELLS/uL and the “ABSOLUTE SEGMENTED NEUTROPHIL” value [1] was 697 CELLS/uL. For the same compound, the BASOPHIL [1] was 0%, the EOSINOPHIL [1] was 0% and the “ERYTHROCYTE COUNT” value [1] was 5.65 x10E6/uL. The HEMATOCRIT [1] was 35.27%, the HEMOGLOBIN [1] was 13.63 G/DL and the “LEUKOCYTE COUNT” value [1] was 9.9 x10E3/uL. For the same compound, the LYMPHOCYTE [1] was 93%, the “MEAN CORPUSCULAR HEMOGLOBIN” value [1] was 24.2 pg and the “MEAN CORPUSCULAR HEMOGLOBIN CONCENTRATION” value [1] was 38.7 G/DL. The “MEAN CORPUSCULAR VOLUME” value [1] was 62.47 fL, the MONOCYTE [1] was 0.33% and the NEUTROPHIL [1] was 6.67%. For the same compound, the “NUCLEATED RED BLOOD CELLS” value [1] was 0 /100WBC, the “PLATELET COUNT” value [1] was 833 x10E3/uL and the “ALANINE AMINOTRANSFERASE” value [2] was 84.33 u/L. The ALBUMIN [2] was 4.1 G/DL, the “ALKALINE PHOSPHATASE” value [2] was 531.67 u/L and the “ASPARTATE AMINOTRANSFERASE” value [2] was 83 u/L. For the same compound, the “BLOOD UREA NITROGEN” value [2] was 10.67 mg/dL, the “CARBON DIOXIDE” value [2] was 34.67 mmol/L and the CHLORIDE [2] was 98.33 MEQ/L. The CHOLESTEROL [2] was 76.67 mg/dL, the “CREATINE PHOSPHOKINASE” value [2] was 231.33 u/L and the CREATININE [2] was 0.16 mg/dL. The GLUCOSE [2] was 154 mg/dL, the “LACTATE DEHYDROGENASE” value [2] was 122.67 u/L and the LIPASE [2] was 10 u/L. For the same compound, the PHOSPHORUS [2] was 10.13 mg/dL, the POTASSIUM [2] was 5.23 MEQ/L and the SODIUM [2] was 142.43 MEQ/L. The “TOTAL BILIRUBIN” value [2] was 0.23 mg/dL, the “TOTAL PROTEIN” value [2] was 5.83 G/DL and the “URIC ACID” value [2] was 0.43 mg/dL. The “ABSOLUTE BASOPHIL” value [3] was 0 CELLS/uL, the “ABSOLUTE EOSINOPHIL” value [3] was 0 CELLS/uL and the “ABSOLUTE LYMPHOCYTE” value [3] was 10747 CELLS/uL. For the same compound, the “ABSOLUTE MONOCYTE” value [3] was 27.33 CELLS/uL, the “ABSOLUTE SEGMENTED NEUTROPHIL” value [3] was 592.33 CELLS/uL and the BASOPHIL [3] was 0%. For the same compound, the EOSINOPHIL [3] was 0%, the “ERYTHROCYTE COUNT” value [3] was 5.51 x10E6/uL and the HEMATOCRIT [3] was 33.6%. For the same compound, the HEMOGLOBIN [3] was 13.4 G/DL, the “LEUKOCYTE COUNT” value [3] was 11.37 x10E3/uL and the LYMPHOCYTE [3] was 94.33%. The “MEAN CORPUSCULAR HEMOGLOBIN” value [3] was 24.33 pg, the “MEAN CORPUSCULAR VOLUME” value [3] was 61.03 fL and the MONOCYTE [3] was 0.33%. For the same compound, the NEUTROPHIL [3] was 5.33%, the “NUCLEATED RED BLOOD CELLS” value [3] was 0 /100WBC and the “PLATELET COUNT” value [3] was 448 x10E3/uL. The “ALANINE AMINOTRANSFERASE” value [4] was 73 u/L, the ALBUMIN [4] was 3.8 G/DL and the “ALKALINE PHOSPHATASE” value [4] was 350.67 u/L. The “ASPARTATE AMINOTRANSFERASE” value [4] was 101.33 u/L, the “BLOOD UREA NITROGEN” value [4] was 11.67 mg/dL and the “CARBON DIOXIDE” value [4] was 23.33 mmol/L. For the same compound, the CHLORIDE [4] was 96 MEQ/L, the CHOLESTEROL [4] was 61.33 mg/dL and the “CREATINE PHOSPHOKINASE” value [4] was 274.33 u/L. The CREATININE [4] was 0.13 mg/dL, the GLUCOSE [4] was 147.33 mg/dL and the “LACTATE DEHYDROGENASE” value [4] was 153 u/L. It also gave an LIPASE [4] of 10.67 u/L, a PHOSPHORUS [4] of 9.03 mg/dL and a POTASSIUM [4] of 5.47 MEQ/L. The SODIUM [4] was 137.1 MEQ/L, the “TOTAL BILIRUBIN” value [4] was 0.2 mg/dL and the “TOTAL PROTEIN” value [4] was 5.33 G/DL. The “URIC ACID” value [4] was 0.67 mg/dL, the “ABSOLUTE BASOPHIL” value [5] was 0 CELLS/uL and the “ABSOLUTE EOSINOPHIL” value [5] was 0 CELLS/uL. The “ABSOLUTE LYMPHOCYTE” value [5] was 7671 CELLS/uL, the “ABSOLUTE MONOCYTE” value [5] was 21 CELLS/uL and the “ABSOLUTE SEGMENTED NEUTROPHIL” value [5] was 641.33 CELLS/uL. For the same compound, the BASOPHIL [5] was 0%, the EOSINOPHIL [5] was 0% and the “ERYTHROCYTE COUNT” value [5] was 5.28 x10E6/uL. For the same compound, the HEMATOCRIT [5] was 33.33%, the HEMOGLOBIN [5] was 12.97 G/DL and the “LEUKOCYTE COUNT” value [5] was 8.33 x10E3/uL. The LYMPHOCYTE [5] was 92%, the “MEAN CORPUSCULAR HEMOGLOBIN” value [5] was 24.53 pg and the “MEAN CORPUSCULAR VOLUME” value [5] was 63 fL. For the same compound, the MONOCYTE [5] was 0.33%, the NEUTROPHIL [5] was 7.67% and the “NUCLEATED RED BLOOD CELLS” value [5] was 0.33 /100WBC. The “PLATELET COUNT” value [5] was 1052.33 x10E3/uL, the “ALANINE AMINOTRANSFERASE” value [6] was 67.67 u/L and the ALBUMIN [6] was 4.03 G/DL. For the same compound, the “ALKALINE PHOSPHATASE” value [6] was 389.33 u/L, the “ASPARTATE AMINOTRANSFERASE” value [6] was 88.67 u/L and the “BLOOD UREA NITROGEN” value [6] was 14.67 mg/dL. The “CARBON DIOXIDE” value [6] was 35 mmol/L, the CHLORIDE [6] was 99.67 MEQ/L and the CHOLESTEROL [6] was 57.33 mg/dL. For the same compound, the “CREATINE PHOSPHOKINASE” value [6] was 199.67 u/L, the CREATININE [6] was 0.15 mg/dL and the GLUCOSE [6] was 156.67 mg/dL. The “LACTATE DEHYDROGENASE” value [6] was 157.67 u/L, the LIPASE [6] was 9.67 u/L and the PHOSPHORUS [6] was 10.33 mg/dL. For the same compound, the POTASSIUM [6] was 5.37 MEQ/L, the SODIUM [6] was 144.23 MEQ/L and the “TOTAL BILIRUBIN” value [6] was 0.17 mg/dL. For the same compound, the “TOTAL PROTEIN” value [6] was 5.67 G/DL and the “URIC ACID” value [6] was 0.5 mg/dL.
